pIC50: −log10 of the molar value. A value given as a limit tells only on which side of the number the result lay.

The first experiment deals with T1, human DGAT2 (hDGAT2) (Homo sapiens, UniProt Q96PD7).
T1 construct: made in house; host or cells: Sf-9 insect cells (baculovirus), membrane fraction
T1 sequence (Q96PD7 1-388): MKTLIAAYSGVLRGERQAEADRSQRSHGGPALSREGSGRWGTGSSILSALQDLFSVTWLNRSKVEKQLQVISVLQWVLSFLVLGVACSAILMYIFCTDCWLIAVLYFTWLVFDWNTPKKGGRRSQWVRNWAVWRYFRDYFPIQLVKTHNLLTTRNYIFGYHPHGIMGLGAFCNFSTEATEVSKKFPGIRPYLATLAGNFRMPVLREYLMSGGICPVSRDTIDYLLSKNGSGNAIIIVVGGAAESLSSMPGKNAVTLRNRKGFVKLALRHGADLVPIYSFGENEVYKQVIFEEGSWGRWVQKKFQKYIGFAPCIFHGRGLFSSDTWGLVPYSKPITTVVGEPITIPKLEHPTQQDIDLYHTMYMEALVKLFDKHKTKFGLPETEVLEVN
The experiment is described as follows: DGAT2 Enzymatic Activity Assay. Type of experiment: biochemical. The note with it: membrane prep of Sf-9 cells expressing hDGAT2; 25 μM diolein, 5 μM 13C oleoyl-CoA; 13C18-triolein by LC/MS/MS; read-out: DGAT2 IC50. The method, then:
Insect Cell Expression and Membrane Preparation
Sf-9 insect cells were maintained in Grace's insect cell culture medium with 10% heated-inactivated fetal bovine serum, 1% Pluronic F-68 and 0.14 μg/ml Kanamycine sulfate at 27° C. in a shaker incubator. After infection with untagged baculovirus expressing human DGAT2 (hDGAT2) at multiplicity of infection (MOI) 3 for 48 hours, cells were harvested. Cell pellets were suspended in buffer containing 10 mM Tris-HCl pH 7.5, 1 mM EDTA, 250 mM sucrose and Complete Protease Inhibitor Cocktail (Sigma Aldrich), and sonicated on ice. Cell debris were removed by centrifugation at 2000×g for 15 minutes. Membrane fractions were isolated by ultracentrifugation (100,000×g), resuspended in the same buffer, and frozen (−80° C.) for later use. The protein concentration was determined with the Pierce™ BCA Protein Assay Kit (Thermo Fisher Scientific). Expression of protein levels was analyzed by immunoblotting with rabbit anti-DGAT2 antibody (Abcam, ab102831) and donkey anti-rabbit IgG H&L Alexa Fluor® 647 (Abcam, ab150075) followed by detection using Typhoon FLA9000 (GE Healthcare).
LC/MS/MS analyses were performed using Thermal Fisher's LX4-TSQ Vantage system. This system consists of an Agilent binary high-performance liquid chromatography (HPLC) pump and a TSQ Vantage triple quadrupole MS/MS instrument. For each sample, 2 μL samples from the top organic layer of in-plate liquid-liquid extraction were injected onto a Thermo Betabasic C4 column (2.1 mm×20 mm, 5 μm particle size). The samples were then eluted using the following conditions; mobile phase: Isopropanol:acetonitrile/10 mM ammonium formate=50/35/15 (v/v/v), flow rate: 0.8 mL/min, temperature: 25° C. Data was acquired in positive mode using a heated electrospray ionization (HESI) interface. The operational parameters for the TSQ Vantage MS/MS instrument were a spray voltage of 3000 V, capillary temperature of 280° C., vaporizer temperature 400° C., sheath gas 45 arbitrary unit, Aux gas 10 arbitrary units, S-lens 165 and collision gas 1.0 mTorr. […] (SRM) chromatograms of ^13C18-triolein (Q1: 920.8>Q3: 621.3) and internal standard ^13C21-triolein (Q1: 923.8>Q3: 617.3) were collected for 33 sec. The peak area was integrated by Xcalibur Quan software. The ratio between the ^13C18triolein generated in the reaction and spiked in internal standard ^13C21-triolein was used to generate percentage inhibition and IC50 values. Compound percentage inhibition was calculated by the following formula: Inhibition %=1−[(compound response−low control)/(high control−low control)]×100%. Potent compounds were titrated and IC50 were calculated by 4 parameter sigmoidal curve fitting formula.
DGAT2 Enzymatic Activity Assay
DGAT2 activity was determined by measuring the amount of enzymatic product ^13C18-triolein (^13C-1,2,3-Tri(cis-9-octadecenoyl)glycerol) using the membrane prep mentioned above. The assay was carried out in ABgene 384-well assay plates in a final volume of 25 μL at rt. The assay mixture contained the following: assay buffer (100 mM Tris·Cl, pH 7.0, 20 mM MgCl2, 5% ethanol), 25 μM of diolein, 5 μM of ^13C oleoyl-CoA and 8 ng/μL of DGAT2 membrane.
As a reminder, the pIC50 is the negative decadic logarithm of the IC50, by convention in mol/L. Consider `CC(C)n1c(=O)n(-c2cccc(OC(F)F)c2)c2ccc(C(=O)NC(C)C(C)(C)O)cc21` (stereo not shown) [Example 27, 1-[3-(difluoromethoxy)phenyl]-N-(2-hydroxy-1,2-dimethyl-propyl)-3-isopropyl-2-oxo-benzimidazole-5-carboxamide], for which the negative logarithm of the IC50 (pIC50) is less than 5.00.
Same read-out and setting: the figure for `Cn1c(=O)n(-c2cccc(OC(F)F)c2)c2ccc(C(=O)NC3(C)CS(=O)(=O)C3)cc21` [Example 60, 1-(3-(difluoromethoxy)phenyl)-3-methyl-N-(3-methyl-1,1-dioxidothietan-3-yl)-2-oxo-2,3-dihydro-1H-benzo[d]imidazole-5-carboxamide] is 5.96.
With `CC(C)n1c(=O)n(-c2cc(OC(F)F)ccc2F)c2ncc(C(=O)NC3(C)CS(=O)(=O)C3)cc21` [Example 102, 3-[5-(difluoromethoxy)-2-fluoro-phenyl]-1-isopropyl-N-(3-methyl-1,1-dioxo-thietan-3-yl)-2-oxo-imidazo[4,5-b]pyridine-6-carboxamide], the negative logarithm of the IC50 (pIC50) was 6.83.
The same measure, in the same setting: the figure for `CCn1c(=O)n(-c2cccc(OC(F)F)c2)c2ccc(C(=O)NC3(C)CS(=O)(=O)C3)cc21` [Example 40, 1-(3-(Difluoromethoxy)phenyl)-3-ethyl-N-(3-methyl-1,1-dioxidothietan-3-yl)-2-oxo-2,3-dihydro-1H-benzo[d]imidazole-5-carboxamide] is 6.71; for `CC(C)n1c(=O)n(-c2cccc(OC(F)F)c2)c2ccc(C(=O)NC3(C)CC(F)(F)C3)cc21` [Example 33, 1-[3-(difluoromethoxy)phenyl]-N-(3,3-difluoro-1-methyl-cyclobutyl)-3-isopropyl-2-oxo-benzimidazole-5-carboxamide] it is 6.74.
Still for that read-out and setting: the figure for `CC(C)Oc1cccc(-n2c(=O)n(C(C)C)c3cc(C(=O)NC4(C)CCS(=O)(=O)CC4)cnc32)c1` [Example 101, 3-(3-isopropoxyphenyl)-1-isopropyl-N-(4-methyl-1,1-dioxo-thian-4-yl)-2-oxo-imidazo[4,5-b]pyridine-6-carboxamide] is 6.30; for `CC(C)n1c(=O)n(-c2cccc(OC(F)F)c2)c2ccc(C(=O)N[C@@]3(C)CCS(=O)(=O)C3)cc21` [Example 32, 1-[3-(difluoromethoxy)phenyl]-3-isopropyl-N-[(3S)-3-methyl-1,1-dioxo-thiolan-3-yl]-2-oxo-benzimidazole-5-carboxamide] it is 7.02; for `CC(C)n1c(=O)n(-c2cccc(OC(F)(F)F)c2)c2ncc(C(=O)NC3(C)CS(=O)(=O)C3)cc21` [Example 91, 1-isopropyl-N-(3-methyl-1,1-dioxo-thietan-3-yl)-2-oxo-3-[3-(trifluoromethoxy)phenyl]imidazo[4,5-b]pyridine-6-carboxamide] it is 6.45.
Same read-out and setting: the result for `CC(n1c(=O)n(-c2cc(OC(F)(F)F)ccc2F)c2ccc(C(=O)NC3(C)CCS(=O)(=O)CC3)cc21)C(C)(C)O` (single isomer, unassigned) [Example 71a, 1-(2-fluoro-5-(trifluoromethoxy)phenyl)-3-(3-hydroxy-3-methylbutan-2-yl)-N-(4-methyl-1,1-dioxidotetrahydro-2H-thiopyran-4-yl)-2-oxo-2,3-dihydro-1H-benzo[d]imidazole-5-carboxamide] reads 7.15.
On to `CC(C)n1c(=O)n(-c2cccc(OC(F)(F)C(F)F)c2)c2ncc(C(=O)N[C@]3(C)CCS(=O)(=O)C3)cc21` [Example 95, 1-isopropyl-N-[(3R)-3-methyl-1,1-dioxo-thiolan-3-yl]-2-oxo-3-[3-(1,1,2,2-tetrafluoroethoxy)phenyl]imidazo[4,5-b]pyridine-6-carboxamide], for which the pIC50 was 7.64.
For the molecule `CCOc1cccc(-n2c(=O)n(C(C)C)c3cc(C(=O)NC4(C)CS(=O)(=O)C4)cnc32)c1` [Example 96, 3-(3-ethoxyphenyl)-1-isopropyl-N-(3-methyl-1,1-dioxo-thietan-3-yl)-2-oxo-imidazo[4,5-b]pyridine-6-carboxamide], the pIC50 was 7.03.
On the same count and under the same terms, the result for `CC(n1c(=O)n(-c2cc(OCC(F)F)ccc2F)c2cc(F)c(C(=O)NC3(C)CCS(=O)(=O)CC3)cc21)C(C)(C)O` (single isomer, unassigned) [Example 75a, 1-(5-(2,2-difluoroethoxy)-2-fluorophenyl)-6-fluoro-3-(3-hydroxy-3-methylbutan-2-yl)-N-(4-methyl-1,1-dioxidotetrahydro-2H-thiopyran-4-yl)-2-oxo-2,3-dihydro-1H-benzo[d]imidazole-5-carboxamide] reads 8.82; that for `Cc1nnc(NC(=O)c2ccc3c(c2)n(C(C)C)c(=O)n3-c2cccc(OC(F)F)c2)s1` [Example 61, 1-(3-(difluoromethoxy)phenyl)-3-isopropyl-N-(5-methyl-1,3,4-thiadiazol-2-yl)-2-oxo-2,3-dihydro-1H-benzo[d]imidazole-5-carboxamide], less than 5.00.

Staying with this experiment, now noted: membrane prep of Sf-9 cells expressing hDGAT2; 25 μM diolein, 5 μM 13C oleoyl-CoA; 13C18-triolein by LC/MS/MS; read-out: Human DGAT2 IC50.
As to `CC(C)n1c(=O)n(-c2cc(OCC(F)F)ncc2F)c2cc(F)c(C(=O)NC3(C)CCS(=O)(=O)CC3)cc21` [Example 115, 1-(2-(2,2-difluoroethoxy)-5-fluoropyridin-4-yl)-6-fluoro-3-isopropyl-N-(4-methyl-1,1-dioxidotetrahydro-2H-thiopyran-4-yl)-2-oxo-2,3-dihydro-1H-benzo[d]imidazole-5-carboxamide], the pIC50 was 8.39.
Same read-out and setting: the figure for `CC(n1c(=O)n(-c2cc(OC(F)F)ccc2F)c2ccc(C(=O)NC3(C)CS(=O)(=O)C3)cc21)C(C)(C)O` (single isomer, unassigned) [EX-65a, 1-(5-(difluoromethoxy)-2-fluorophenyl)-3-(3-hydroxy-3-methylbutan-2-yl)-N-(3-methyl-1,1-dioxidothietan-3-yl)-2-oxo-2,3-dihydro-1H-benzo[d]imidazole-5-carboxamide] is 7.28; for `CCOc1cc(-n2c(=O)n(C(C)C)c3cc(C(=O)N[C@]4(C)CCS(=O)(=O)C4)ccc32)c(F)cn1` [Example 18, (R)-1-(2-Ethoxy-5-fluoropyridin-4-yl)-3-isopropyl-N-(3-methyl-1,1-dioxidotetrahydrothiophen-3-yl)-2-oxo-2,3-dihydro-1H-benzo[d]imidazole-5-carboxamide] it is 7.55.
The same measure, in the same setting: the figure for `CC(C)n1c(=O)n(-c2cc(OC(F)F)ncc2F)c2ccc(C(=O)NC3(C)CCS(=O)(=O)CC3)cc21` [Example 5, 1-(2-(Difluoromethoxy)-5-fluoropyridin-4-yl)-3-isopropyl-N-(4-methyl-1,1-dioxidotetrahydro-2H-thiopyran-4-yl)-2-oxo-2,3-dihydro-1H-benzo[d]imidazole-5-carboxamide] is 7.47; for `CCOc1cc(-n2c(=O)n(C(C)C)c3cc(C(=O)N[C@@]4(C)CCS(=O)(=O)C4)ccc32)c(F)cn1` [Example 17, (S)-1-(2-Ethoxy-5-fluoropyridin-4-yl)-3-isopropyl-N-(3-methyl-1,1-dioxidotetrahydrothiophen-3-yl)-2-oxo-2,3-dihydro-1H-benzo[d]imidazole-5-carboxamide] it is 6.91.
Same read-out and setting: the figure for `CC(C)n1c(=O)n(-c2cccc(OC(F)(F)F)c2)c2ccc(C(=O)NC3(C)CS(=O)(=O)C3)cc21` [Example 19, 3-isopropyl-N-(3-methyl-1,1-dioxo-thietan-3-yl)-2-oxo-1-[3-(trifluoromethoxy)phenyl]benz-imidazole-5-carboxamide] is 7.00.

For the origin of these results see US11976061B2, “Preparation of benzimidazolone derivatives as novel diacylglyceride O-acyltransferase 2 inhibitors” (Merck Sharp & Dohme LLC, priority 2020, dated 2024).
